{
  "source": "patent US6897244B2",
  "about": "“Dihydronootkatone and tetrahydronootkatone as repellents to arthropods” (Board of Supervisors of Louisiana State University and …, priority 2002, dated 2005)",
  "key": {"[1]": {"tested_on": "biting midges (family Ceratopogonidae, genus Culicoides)", "test": "Field test of 5% solution applied to faces against biting midges in a marsh", "type": "in vivo", "conditions": "5% solution in 70% isopropyl alcohol applied to faces of two volunteers", "protocol": "To test the repellence of tetrahydronootkatone on biting midges (family Ceratopogonidae, genus Culicoides), tetrahydronootkatone was dissolved in 70% isopropyl alcohol to a final concentration of 5%. This solution was used to topically apply to the faces of two adult male volunteers. […] The six males went into a southern Louisiana marsh, an area known for biting midges."}, "[2]": {"tested_on": "Formosan subterranean termites", "test": "Petri dish treated/untreated sand bioassay for repelling activity against termites", "type": "in vivo, Coptotermes formosanus", "design": "key to percent of termites on untreated sand vs expected value of 50% (Chi-Square, p≦0.05): “−” indicates the test was not significantly different from the expected value; “+” indicates the test was significantly different from the expected value", "protocol": "A carton nest (colony A) of Formosan subterranean termites was collected in Algiers, Louisiana in November 1997, and held in 250-liter cans. The cans were filled with pine as a food source, and kept at a temperature range of 24-26° C. Moistened corrugated cardboard rolls were used to retrieve termites from the cans. Once the termites migrated to the cardboard rolls, they were gently knocked from the cardboard rolls into clean rectangular plastic trays (40 cm×50 cm). Retrieved termites were isolated from debris by allowing them to cling to sheets of moistened paper towels. The average weight of each termite was 1.21 mg.\nTo test for effectiveness of nootkatone, 1,10-dihydronootkatone and tetrahydronootkatone in repelling termites, a bioassay was conducted using Petri dishes (5 cm diameter and 1 cm height). To ensure adequate moisture for the termites, 1 ml of a hot agar solution (1.5% in H2O) was spread on the bottom of the Petri dish. After the agar cooled, sand that was treated as described below was spread on the bottom of the Petri dish. For the treated sand, purified 1,10-dihydronootkatone or tetrahydronootkatone were dissolved in 2 ml ethanol, and then diluted to achieve final concentrations of 1, 2, 5, 12.5, 25, 50, and 100 μg/g sand. The solution was mixed with 1 g sand that had been autoclaved and cooled. The control sand was autoclaved sand with only 200 μl ethanol added. One half of the surfaces in the Petri dishes were covered with 1 g treated sand, and the other half with 1 g untreated sand.\nThe prepared Petri dishes were then used to evaluate the repelling activity against Formosan subterranean termites. Ten worker termites were added to each Petri dish, and the dishes were covered to eliminate light. Five replicate dishes were tested for each concentration and for the control. Termite position was recorded every 15 min during the first hour of testing by counting the number of termites observed on untreated sand. After the first hour, termite position was recorded each hour for 3 hr.\nDifferences between the percent of termites on untreated sand and an expected value were statistically analyzed by a Chi-Square analysis, using an expected value of 50% and a significance level of p≦0.05."}, "[3]": {"tested_on": "salt marsh mosquitoes, Aedes vexans", "test": "Mosquito bites on arm treated topically with 5% solution, placed in mosquito cage", "type": "in vivo", "conditions": "for Number of Mosquito Bites in a 2 min Period: arm treated with 5 ml of 5% solution", "protocol": "To test the repellence of tetrahydronootkatone on mosquitos, tetrahydronootkatone was dissolved in 70% isopropyl alcohol to a final concentration of 5%. This solution was used to topically apply to the arms of two male volunteers. Each volunteer cleaned each arm thoroughly with soap and water, and then wiped down each arm with 70% isopropyl alcohol. The right arm of each volunteer was treated with 5 ml of the 5% tetrahydronootkatone solution. The left arm served as a control. To test for mosquito repellence, each arm of a single volunteer was placed into a cage of freshly collected mosquitoes, about 100 mosquitos per cage. The mosquitoes were salt marsh mosquitoes, Aedes […]. After 2 min, the number of mosquito bites on each arm were counted. Tests were run at 5 min, 1 hr, 2 hr, and 3 hr after the initial application of tetrahydronootkatone."}},
  "note": "Entries after “also recorded” stand apart in the source; their conditions may differ.",
  "data": [
    {"smiles": "CC(C)C1CCC2CC(=O)CC(C)C2(C)C1", "note": "(stereo not drawn) [Tetrahydronootkatone, 1,4,4a,5,6,7,8,10-octahydro-6-isopropl-4,4a-dimethyl-2(1H)-naphthalenone]", "values": [
      {"measurement": "repellence of biting midges", "setting": "[1]", "value": "fewer problems with biting midges; also recorded: effective repellent for biting midges"},
      {"measurement": "percent of termites on untreated sand vs expected value of 50% (Chi-Square, p≦0.05)", "setting": "[2]; 1 μg/dish, 0.25 hour", "value": "−"},
      {"measurement": "percent of termites on untreated sand vs expected value of 50% (Chi-Square, p≦0.05)", "setting": "[2]; 1 μg/dish, 0.5 hour", "value": "−"},
      {"measurement": "percent of termites on untreated sand vs expected value of 50% (Chi-Square, p≦0.05)", "setting": "[2]; 1 μg/dish, 0.75 hour", "value": "−"},
      {"measurement": "percent of termites on untreated sand vs expected value of 50% (Chi-Square, p≦0.05)", "setting": "[2]; 1 μg/dish, 1 hour", "value": "−"},
      {"measurement": "percent of termites on untreated sand vs expected value of 50% (Chi-Square, p≦0.05)", "setting": "[2]; 1 μg/dish, 2 hour", "value": "−"},
      {"measurement": "percent of termites on untreated sand vs expected value of 50% (Chi-Square, p≦0.05)", "setting": "[2]; 1 μg/dish, 3 hour", "value": "−"},
      {"measurement": "percent of termites on untreated sand vs expected value of 50% (Chi-Square, p≦0.05)", "setting": "[2]; 2 μg/dish, 0.25 hour", "value": "+"},
      {"measurement": "percent of termites on untreated sand vs expected value of 50% (Chi-Square, p≦0.05)", "setting": "[2]; 2 μg/dish, 0.5 hour", "value": "+"},
      {"measurement": "percent of termites on untreated sand vs expected value of 50% (Chi-Square, p≦0.05)", "setting": "[2]; 2 μg/dish, 0.75 hour", "value": "+"},
      {"measurement": "percent of termites on untreated sand vs expected value of 50% (Chi-Square, p≦0.05)", "setting": "[2]; 2 μg/dish, 1 hour", "value": "+"},
      {"measurement": "percent of termites on untreated sand vs expected value of 50% (Chi-Square, p≦0.05)", "setting": "[2]; 2 μg/dish, 2 hour", "value": "+"},
      {"measurement": "percent of termites on untreated sand vs expected value of 50% (Chi-Square, p≦0.05)", "setting": "[2]; 2 μg/dish, 3 hour", "value": "+"},
      {"measurement": "percent of termites on untreated sand vs expected value of 50% (Chi-Square, p≦0.05)", "setting": "[2]; 5 μg/dish, 0.25 hour", "value": "−"},
      {"measurement": "percent of termites on untreated sand vs expected value of 50% (Chi-Square, p≦0.05)", "setting": "[2]; 5 μg/dish, 0.5 hour", "value": "+"},
      {"measurement": "percent of termites on untreated sand vs expected value of 50% (Chi-Square, p≦0.05)", "setting": "[2]; 5 μg/dish, 0.75 hour", "value": "+"},
      {"measurement": "percent of termites on untreated sand vs expected value of 50% (Chi-Square, p≦0.05)", "setting": "[2]; 5 μg/dish, 1 hour", "value": "+"},
      {"measurement": "percent of termites on untreated sand vs expected value of 50% (Chi-Square, p≦0.05)", "setting": "[2]; 5 μg/dish, 2 hour", "value": "+"},
      {"measurement": "percent of termites on untreated sand vs expected value of 50% (Chi-Square, p≦0.05)", "setting": "[2]; 5 μg/dish, 3 hour", "value": "+"},
      {"measurement": "percent of termites on untreated sand vs expected value of 50% (Chi-Square, p≦0.05)", "setting": "[2]; 12.5 μg/dish, 0.25 hour", "value": "+"},
      {"measurement": "percent of termites on untreated sand vs expected value of 50% (Chi-Square, p≦0.05)", "setting": "[2]; 12.5 μg/dish, 0.5 hour", "value": "+"},
      {"measurement": "percent of termites on untreated sand vs expected value of 50% (Chi-Square, p≦0.05)", "setting": "[2]; 12.5 μg/dish, 0.75 hour", "value": "+"},
      {"measurement": "percent of termites on untreated sand vs expected value of 50% (Chi-Square, p≦0.05)", "setting": "[2]; 12.5 μg/dish, 1 hour", "value": "+"},
      {"measurement": "percent of termites on untreated sand vs expected value of 50% (Chi-Square, p≦0.05)", "setting": "[2]; 12.5 μg/dish, 2 hour", "value": "+"},
      {"measurement": "percent of termites on untreated sand vs expected value of 50% (Chi-Square, p≦0.05)", "setting": "[2]; 12.5 μg/dish, 3 hour", "value": "+"},
      {"measurement": "percent of termites on untreated sand vs expected value of 50% (Chi-Square, p≦0.05)", "setting": "[2]; 25 μg/dish, 0.25 hour", "value": "−"},
      {"measurement": "percent of termites on untreated sand vs expected value of 50% (Chi-Square, p≦0.05)", "setting": "[2]; 25 μg/dish, 0.5 hour", "value": "+"},
      {"measurement": "percent of termites on untreated sand vs expected value of 50% (Chi-Square, p≦0.05)", "setting": "[2]; 25 μg/dish, 0.75 hour", "value": "+"},
      {"measurement": "percent of termites on untreated sand vs expected value of 50% (Chi-Square, p≦0.05)", "setting": "[2]; 25 μg/dish, 1 hour", "value": "+"},
      {"measurement": "percent of termites on untreated sand vs expected value of 50% (Chi-Square, p≦0.05)", "setting": "[2]; 25 μg/dish, 2 hour", "value": "+"},
      {"measurement": "percent of termites on untreated sand vs expected value of 50% (Chi-Square, p≦0.05)", "setting": "[2]; 25 μg/dish, 3 hour", "value": "+"},
      {"measurement": "percent of termites on untreated sand vs expected value of 50% (Chi-Square, p≦0.05)", "setting": "[2]; 50 μg/dish, 0.25 hour", "value": "+"},
      {"measurement": "percent of termites on untreated sand vs expected value of 50% (Chi-Square, p≦0.05)", "setting": "[2]; 50 μg/dish, 0.5 hour", "value": "+"},
      {"measurement": "percent of termites on untreated sand vs expected value of 50% (Chi-Square, p≦0.05)", "setting": "[2]; 50 μg/dish, 0.75 hour", "value": "+"},
      {"measurement": "percent of termites on untreated sand vs expected value of 50% (Chi-Square, p≦0.05)", "setting": "[2]; 50 μg/dish, 1 hour", "value": "+"},
      {"measurement": "percent of termites on untreated sand vs expected value of 50% (Chi-Square, p≦0.05)", "setting": "[2]; 50 μg/dish, 2 hour", "value": "+"},
      {"measurement": "percent of termites on untreated sand vs expected value of 50% (Chi-Square, p≦0.05)", "setting": "[2]; 50 μg/dish, 3 hour", "value": "+"},
      {"measurement": "percent of termites on untreated sand vs expected value of 50% (Chi-Square, p≦0.05)", "setting": "[2]; 100 μg/dish, 0.25 hour", "value": "+"},
      {"measurement": "percent of termites on untreated sand vs expected value of 50% (Chi-Square, p≦0.05)", "setting": "[2]; 100 μg/dish, 0.5 hour", "value": "+"},
      {"measurement": "percent of termites on untreated sand vs expected value of 50% (Chi-Square, p≦0.05)", "setting": "[2]; 100 μg/dish, 0.75 hour", "value": "+"},
      {"measurement": "percent of termites on untreated sand vs expected value of 50% (Chi-Square, p≦0.05)", "setting": "[2]; 100 μg/dish, 1 hour", "value": "+"},
      {"measurement": "percent of termites on untreated sand vs expected value of 50% (Chi-Square, p≦0.05)", "setting": "[2]; 100 μg/dish, 2 hour", "value": "+"},
      {"measurement": "percent of termites on untreated sand vs expected value of 50% (Chi-Square, p≦0.05)", "setting": "[2]; 100 μg/dish, 3 hour", "value": "+"},
      {"measurement": "factor by which the effective termite-repellent concentration is lower than that of nootkatone", "setting": "[2]; relative to nootkatone", "value": 50},
      {"measurement": "concentration effective as termite repellent", "setting": "[2]; time periods up to 3 hr", "value": 2, "unit": "µg"},
      {"measurement": "mosquito repellence", "setting": "[3]; 5% solution, time periods up to 3 hr after the initial application", "value": "effective mosquito repellent"},
      {"measurement": "Number of Mosquito Bites in a 2 min Period", "setting": "[3]; Volunteer 1, 5 min after application", "value": 0},
      {"measurement": "Number of Mosquito Bites in a 2 min Period", "setting": "[3]; Volunteer 1, 1 hr after application", "value": 0},
      {"measurement": "Number of Mosquito Bites in a 2 min Period", "setting": "[3]; Volunteer 1, 2 hr after application", "value": 0},
      {"measurement": "Number of Mosquito Bites in a 2 min Period", "setting": "[3]; Volunteer 1, 3 hr after application", "value": 0},
      {"measurement": "Number of Mosquito Bites in a 2 min Period", "setting": "[3]; Volunteer 2, 5 min after application", "value": 0},
      {"measurement": "Number of Mosquito Bites in a 2 min Period", "setting": "[3]; Volunteer 2, 1 hr after application", "value": 0},
      {"measurement": "Number of Mosquito Bites in a 2 min Period", "setting": "[3]; Volunteer 2, 2 hr after application", "value": 0},
      {"measurement": "Number of Mosquito Bites in a 2 min Period", "setting": "[3]; Volunteer 2, 3 hr after application", "value": 2}
    ]}
  ]
}
